Test results reported in PubChem BioAssay AID588667 (The Scripps Research Institute Molecular Screening Center, 2011).

Molecular target: Epidermal growth factor receptor (Homo sapiens) (UniProt P00533)
Assay: decrease of EGFR abundance in colorectal cells – SW620 cells, chemiluminescent western blot, powder samples, counter-screen for KLF5 inhibitor project, late-stage follow-up (AID 588667)
Settings: 24 h, at 10 µM; for inhibition: stronger effect = higher value; for signed fold change of EGFR band vs DMSO (negative = fold decrease; more negative = more active): measured here: EGFR band fold change vs DMSO

Epidermal growth factor receptor (Homo sapiens), sequence (P00533 whole entry, looked up): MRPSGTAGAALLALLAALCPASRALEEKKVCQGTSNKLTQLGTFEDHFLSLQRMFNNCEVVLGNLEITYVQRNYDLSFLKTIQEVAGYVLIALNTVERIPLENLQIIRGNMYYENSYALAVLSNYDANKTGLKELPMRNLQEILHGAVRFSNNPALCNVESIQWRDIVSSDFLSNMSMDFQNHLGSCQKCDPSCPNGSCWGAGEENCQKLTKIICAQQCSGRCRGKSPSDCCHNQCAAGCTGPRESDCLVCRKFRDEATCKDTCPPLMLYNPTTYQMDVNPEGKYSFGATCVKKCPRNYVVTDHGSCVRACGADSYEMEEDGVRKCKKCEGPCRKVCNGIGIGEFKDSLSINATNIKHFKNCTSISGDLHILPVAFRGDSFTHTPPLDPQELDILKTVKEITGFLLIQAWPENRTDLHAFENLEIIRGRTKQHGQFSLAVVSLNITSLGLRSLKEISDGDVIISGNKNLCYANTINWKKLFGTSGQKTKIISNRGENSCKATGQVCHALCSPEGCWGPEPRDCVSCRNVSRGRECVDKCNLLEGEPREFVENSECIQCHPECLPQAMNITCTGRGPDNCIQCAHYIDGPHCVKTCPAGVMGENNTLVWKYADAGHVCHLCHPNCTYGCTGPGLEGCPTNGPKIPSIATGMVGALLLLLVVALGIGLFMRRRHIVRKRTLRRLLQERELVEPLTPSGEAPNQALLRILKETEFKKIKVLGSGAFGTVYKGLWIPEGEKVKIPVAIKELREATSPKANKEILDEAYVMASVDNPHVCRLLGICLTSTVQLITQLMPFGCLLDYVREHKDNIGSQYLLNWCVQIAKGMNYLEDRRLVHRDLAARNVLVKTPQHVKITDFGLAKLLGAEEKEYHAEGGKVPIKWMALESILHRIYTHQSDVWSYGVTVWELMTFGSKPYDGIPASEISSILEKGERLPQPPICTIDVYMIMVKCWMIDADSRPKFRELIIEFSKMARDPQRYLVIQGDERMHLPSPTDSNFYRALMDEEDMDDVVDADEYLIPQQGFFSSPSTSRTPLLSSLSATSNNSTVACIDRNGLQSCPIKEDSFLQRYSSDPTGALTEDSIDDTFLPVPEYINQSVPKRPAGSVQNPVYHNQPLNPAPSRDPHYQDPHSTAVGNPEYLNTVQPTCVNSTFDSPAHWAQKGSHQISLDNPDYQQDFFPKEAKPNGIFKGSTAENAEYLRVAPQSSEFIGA

Row | SMILES | inhibition [%] | signed fold change of EGFR band vs DMSO (negative = fold decrease; more negative = more active)
1 | CN(C(=O)COC(=O)/C=C/c1cccc([N+](=O)[O-])c1)C1CCS(=O)(=O)C1 (stereo unspecified) | 53.3 | -2.14
2 | CN(C(=O)CNC(=O)/C=C/c1cccc(Cl)c1)C1CCS(=O)(=O)C1 (stereo unspecified) | 31.7 | -1.46
3 | CN(C(=O)CNC(=O)/C=C/c1cccc(Cl)c1)C1CCS(=O)(=O)CC1 | 87.1 | -7.78
